# Reference: patent US20240109853A1 (Shanghai Yao Yuan Biotechnology Co., Ltd., priority 2020, published 2024)
# Like-named read-outs stand apart in the source and are kept apart here.
# Columns and labels:
# ALPK1 = ALPK1 (Homo sapiens (Human), UniProt Q96QP1); experiment: ALPK1 in vitro kinase assay (HTRF of TIFA phosphorylation); type: biochemical
# [1] = system: ALPK1-dependent NFκB reporter gene activation in HEK293 cells stably expressing an NF-kB reporter (G9 cells); experiment: NFκB gene reporter alkaline phosphatase assay; type: cell-based; details: read-out: NFkB assay IC50
# From the text: In embodiments, a compound of Formula I, or a subembodiment described herein, is an inhibitor of ALPK1 as measured, for example, in an in vitro kinase assay, or an assay designed to measure the activation of downstream targets of ALPK1 pathway activation, for example NFkB transcriptional activation and the secretion of proinflammatory cytokines and chemokines, such as IL-8, which is also referred to as CXCL-8. In general, the computer program XL fit was used for data analysis, including non-linear regression analysis. The half maximal inhibitory concentration (IC50) was used as the measure of a compound's effectiveness in the assays. IC50 values were determined using the following logistic equation Y=min+(max−min)/(1+(X/IC50^−hillslpoe), where Y is the value at the compound concentration, X. The concentration response curve fitting was conducted using GraphPad Prism version 6.00 software.
# An alkaline phosphatase reporter assay system was used to measure inhibition of ALPK1-dependent NFκB reporter gene activation. Briefly, HEK293 cells stably expressing an NF-kB reporter (referred to herein as “G9 cells”) were maintained in DMEM as described above. For the assay, cells were seeded into 96-well plates at a density of 10,000 cells/well in Freestyle™ 293 Expression Medium (ThermoFisher), and allowed to attach overnight. Cells were pretreated with serially diluted compounds for 30 min and then stimulated with D-glycero-D-manno-6-fluoro-heptose-1β-S-ADP. […] NFkB gene activation was detected using the chromogenic substrate, para-nitrophenyl phosphate (pNPP) according to the manufacturer's protocols (pNPP Phosphatase Assay, Beyotime Biotechnology).
# ALPK1, sequence (Q96QP1 whole entry): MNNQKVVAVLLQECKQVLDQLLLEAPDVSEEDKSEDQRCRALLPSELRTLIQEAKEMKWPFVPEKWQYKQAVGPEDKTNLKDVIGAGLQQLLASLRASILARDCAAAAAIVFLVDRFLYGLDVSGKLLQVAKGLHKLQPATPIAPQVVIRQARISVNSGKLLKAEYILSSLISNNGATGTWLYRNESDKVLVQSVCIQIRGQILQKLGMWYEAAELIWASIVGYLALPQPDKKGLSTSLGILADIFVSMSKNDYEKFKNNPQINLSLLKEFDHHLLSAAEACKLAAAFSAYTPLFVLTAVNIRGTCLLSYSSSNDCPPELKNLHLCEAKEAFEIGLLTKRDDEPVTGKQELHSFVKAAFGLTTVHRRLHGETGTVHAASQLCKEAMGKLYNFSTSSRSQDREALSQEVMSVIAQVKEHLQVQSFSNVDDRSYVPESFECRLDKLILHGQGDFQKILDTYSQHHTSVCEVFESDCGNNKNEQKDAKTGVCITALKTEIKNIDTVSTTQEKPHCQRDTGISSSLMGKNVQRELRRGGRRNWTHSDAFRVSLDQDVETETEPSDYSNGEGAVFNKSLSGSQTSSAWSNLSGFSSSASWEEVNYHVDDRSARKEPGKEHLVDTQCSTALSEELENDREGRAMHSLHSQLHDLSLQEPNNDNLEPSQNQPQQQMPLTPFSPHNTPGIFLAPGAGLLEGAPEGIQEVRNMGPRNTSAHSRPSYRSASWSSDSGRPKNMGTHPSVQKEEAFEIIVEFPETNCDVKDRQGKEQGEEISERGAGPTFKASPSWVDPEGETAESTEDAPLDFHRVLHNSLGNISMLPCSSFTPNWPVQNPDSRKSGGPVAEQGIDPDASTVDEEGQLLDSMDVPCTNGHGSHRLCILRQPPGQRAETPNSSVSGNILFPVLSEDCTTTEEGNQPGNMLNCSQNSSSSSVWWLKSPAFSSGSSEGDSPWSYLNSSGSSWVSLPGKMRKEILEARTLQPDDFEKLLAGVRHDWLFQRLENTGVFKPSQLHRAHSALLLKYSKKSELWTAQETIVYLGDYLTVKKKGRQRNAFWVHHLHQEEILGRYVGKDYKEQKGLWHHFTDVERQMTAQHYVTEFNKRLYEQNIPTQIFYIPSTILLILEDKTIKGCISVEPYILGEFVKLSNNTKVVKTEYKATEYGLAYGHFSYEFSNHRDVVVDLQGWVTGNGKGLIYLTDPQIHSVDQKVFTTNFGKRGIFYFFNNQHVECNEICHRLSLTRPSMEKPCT
SMILES,IC50 (ALPK1),"IC50 ([1]; Homo sapiens, HEK293)",IC50 [1],"IC50 (ALPK1; ALPK1 2 nM, TIFA substrate, ADP-Heptose activator, HTRF readout)"
"CC(NC(=O)Nc1nc(C(C)(C)c2ccc(Br)cc2)cs1)c1cc(F)c(N2CCNCC2)c(F)c1 (stereo not shown) [Example A003, 1-(4-(2-(4-bromophenyl)propan-2-yl)thiazol-2-yl)-3-(1-(3,5-difluoro-4-(piperazin-1-yl)phenyl)ethyl)urea]",45 nM,1200 nM,,
"CC(C)(c1ccc(Br)cc1)c1csc(NC(=O)NCc2cncnc2)n1 [Example A004, 1-(4-(2-(4-bromophenyl)propan-2-yl)thiazol-2-yl)-3-(pyrimidin-5-ylmethyl)urea]",240 nM,2030 nM,,
"CC(C)(c1ccc(Br)cc1)c1csc(NC(=O)NCc2ccc(C(N)=O)cc2)n1 [Example A008, 4-((3-(4-(2-(4-bromophenyl)propan-2-yl)thiazol-2-yl)ureido)methyl)benz-mide]",8 nM,700 nM,,
"CC(C)(c1ccc(Br)cc1)c1csc(NC(=O)NCc2ccc(N3CCC(O)C3)cc2)n1 (stereo not shown) [Example A009, 1-(4-(2-(4-bromophenyl)propan-2-yl)thiazol-2-yl)-3-(4-(3-hydroxypyrrolidin-1-yl)benzyl)urea]",154 nM,3150 nM,,
"CC(C)(c1ccc(Br)cc1)c1csc(NC(=O)NCc2ccc(N3CCN(CCO)CC3)nc2)n1 [Example A010, 1-(4-(2-(4-bromophenyl)propan-2-yl)thiazol-2-yl)-3-((6-(4-(2-hydroxyethyl)piperazin-1-yl)pyridin-3-yl)methyl)urea]",200 nM,3950 nM,,
"COc1ccc(C(C)(C)c2csc(NC(=O)NCc3ccc(N4CCC(N(C)C)C4)nc3)n2)cc1 (stereo not shown) [Example A011, 1-((6-(3-(dimethylamino)pyrrolidin-1-yl)pyridin-3-yl)methyl)-3-(4-(2-(4-methoxyphenyl)propan-2-yl)thiazol-2-yl)urea]",49 nM,1370 nM,,
"COc1ccc(C(C)(C)c2csc(NC(=O)NCc3cnc(N4CCC(N(C)C)C4)nc3)n2)cc1 (stereo not shown) [Example A012, 1-((2-(3-(dimethylamino)pyrrolidin-1-yl)pyrimidin-5-yl)methyl)-3-(4-(2-(4-methoxyphenyl)propan-2-yl)thiazol-2-yl)urea]",40 nM,2210 nM,,
"COc1ccc(C(C)(C)c2csc(NC(=O)NCCS(C)(=O)=O)n2)cc1 [Example A013, 1-(4-(2-(4-methoxyphenyl)propan-2-yl)thiazol-2-yl)-3-(2-(methylsulfonyl)ethyl)urea]",316 nM,2970 nM,,
"COc1ccc(C(C)(C)c2csc(NC(=O)NCc3ccc(NCCO)nc3)n2)cc1 [Example A014, 1-((6-((2-hydroxyethyl)amino)pyri-din-3-yl)methyl)-3-(4-(2-(4-methoxyphenyl)propan-2-yl)thiazol-2-yl)urea]",160 nM,880 nM,,
"COc1ccc(C(C)(C)c2csc(NC(=O)NCc3ccc(C(=O)NC4CCN(C)CC4)nc3)n2)cc1 [Example A015, 5-((3-(4-(2-(4-methoxyphenyl)propan-2-yl)thiazol-2-yl)ureido)methyl)-N-(1-methylpiperidin-4-yl)picolinamide]",24 nM,,880 nM,
"CN1CCN(Cc2ccc(CNC(=O)Nc3nc(C(C)(C)c4ccc(Br)cc4)cs3)cc2)CC1 [Example A016, 1-(4-(2-(4-bromophenyl)propan-2-yl)thiazol-2-yl)-3-(4-((4-methylpiperazin-1-yl)methyl)benzyl)urea]",27 nM,2340 nM,,
"CC(C)(c1ccc(Br)cc1)c1csc(NC(=O)NCc2ccc(F)c(Cl)c2)n1 [Example A017, 1-(4-(2-(4-bromophenyl)propan-2-yl)thiazol-2-yl)-3-(3-chloro-4-fluorobenzyl)urea]",204 nM,970 nM,,
"COc1ccc(C(C)(C)c2csc(NC(=O)NCc3ccc(C(=O)NC4CCN(C)CC4)cc3)n2)cc1 [Example A018, 4-((3-(4-(2-(4-methoxyphenyl)propan-2-yl)thiazol-2-yl)ureido)methyl)-N-(1-methylpiperidin-4-yl)benzamide]",29 nM,1280 nM,,
"COc1ccc(C(C)(C)c2csc(NC(=O)NCc3ccc(NC4CCN(C)CC4)nc3)n2)cc1 [Example A019, 1-(4-(2-(4-methoxyphenyl)propan-2-yl)thiazol-2-yl)-3-((6-((1-methylpiperidin-4-yl)amino)pyridin-3-yl)methyl)urea]",32 nM,1290 nM,,
"CC(C)(c1ccc(Br)cc1)c1csc(NC(=O)NCCF)n1 [Example A020, 1-(4-(2-(4-bromophenyl)propan-2-yl)thiazol-2-yl)-3-(2-fluoroethyl)urea]",144 nM,6790 nM,,
"COc1ccc(C(C)(C)c2csc(NC(=O)NCCF)n2)cc1 [Example A021, 1-(2-fluoroethyl)-3-(4-(2-(4-methoxyphenyl)propan-2-yl)thiazol-2-yl)urea]",104 nM,1390 nM,,
"COc1ccc(C(C)(C)c2csc(NC(=O)NCc3ccc(NCCO)nc3)n2)cc1 [Example A022, 1-((6-((2-hydroxyethyl)amino)pyri-din-3-yl)methyl)-3-(4-(2-(4-methoxyphenyl)propan-2-yl)thiazol-2-yl)urea]",232 nM,,960 nM,
"COc1ccc(C(C)(C)c2csc(NC(=O)NCc3ccc(N(C)CCO)nc3)n2)cc1 [Example A023, 1-((6-((2-hydroxyethyl)(methyl)a-mino)pyridin-3-yl)methyl)-3-(4-(2-(4-methoxyphenyl)propan-2-yl)thiazol-2-yl)urea]",229 nM,1320 nM,,
"C#CC(C)(c1ccc(Cl)cc1)c1csc(NC(=O)NCCC#N)n1 (stereo not shown) [Example A024, 1-(4-(2-(4-chlorophenyl)but-3-yn-2-yl)thiazol-2-yl)-3-(2-cyanoethyl)urea]",13 nM,1250 nM,,
"CC(C)(c1ccc(C2CC2)cc1)c1csc(NC(=O)NCc2ccc(N3CCNCC3)cc2)n1 [Example A025, 1-(4-(2-(4-cyclopropylphenyl)propan-2-yl)thiazol-2-yl)-3-(4-(piperazin-1-yl)benzyl)urea]",334 nM,8580 nM,,
"CC(C)(c1ccc(Br)cc1)c1csc(NC(=O)NCc2ccc(CN3CCNCC3)cc2)n1 [Example A026, 1-(4-(2-(4-bromophenyl)propan-2-yl)thiazol-2-yl)-3-(4-(piperazin-1-ylmethyl)benzyl)urea]",117 nM,1250 nM,,
"CC(C)(c1ccc(Br)cc1)c1csc(NC(=O)NCc2ccc(N3CCNCC3)cc2)n1 [Example A027, 1-(4-(2-(4-bromophenyl)propan--2 yl)thiazol-2-yl)-3-(4-(piperazin-1-yl)benzyl)urea]",46 nM,1450 nM,,~50 nM
"CC(C)(c1ccc(Br)cc1)c1csc(NC(=O)NCCCCN)n1 [Example A028, 1-(4-aminobutyl)-3-(4-(2-(4-bromophenyl)propan-2-yl)thiazol-2-yl)urea]",53 nM,2560 nM,,
"Cc1sc(NC(=O)NCc2ccc(N3CCNCC3)cc2)nc1C(C)(C)c1ccc(Br)cc1 [Example A030, 1-(4-(2-(4-bromophenyl)propan-2-yl)-5-methylthiazol-2-yl)-3-(4-(piperazin-1-yl)benzyl)urea]",232 nM,4110 nM,,
"CC(C)(c1ccc(Cl)c(F)c1)c1csc(NC(=O)NCc2ccc(N3CCNCC3)cc2)n1 [Example A031, 1-(4-(2-(4-chloro-3-fluorophenyl)propan-2-yl)thiazol-2-yl)-3-(4-(piperazin-1-yl)benzyl)urea]",345 nM,1450 nM,,
"CC(C)(c1ccc(Br)cc1)c1csc(NC(=O)NCc2ccc(N3CCC(N)C3)cc2)n1 (stereo not shown) [Example A032, 1-(4-(3-aminopyrrolidin-1-yl)benzyl)-3-(4-(2-(4-bromophenyl)propan-2-yl)thiazol-2-yl)urea]",291 nM,580 nM,,
"CC(C)(c1ccc(Br)cc1)c1csc(NC(=O)NCc2ccc(OCC(=O)N3CCNCC3)cc2)n1 [Example A033, 1-(4-(2-(4-bromophenyl)propan-2-yl)thiazol-2-yl)-3-(4-(2-oxo-2-(piperazin-1-yl)ethoxy)benzyl)urea]",80 nM,3190 nM,,
"CC(C)(c1ccc(Br)cc1)c1csc(NC(=O)NCc2ccc(OCCN3CCNCC3)cc2)n1 [Example A034, 1-(4-(2-(4-bromophenyl)propan-2-yl)thiazol-2-yl)-3-(4-(2-(piperazin-1-yl)ethoxy)benzyl)urea]",114 nM,730 nM,,
"CC(C)(c1ccc(Br)cc1)c1csc(NC(=O)NCc2ccc(OCCCN3CCNCC3)cc2)n1 [Example A035, 1-(4-(2-(4-bromophenyl)propan-2-yl)thiazol-2-yl)-3-(4-(3-(piperazin-1-yl)propoxy)benzyl)urea]",52 nM,2030 nM,,
"COc1ccc(C(C)(C)c2csc(NC(=O)NCc3cnc(N4CCNCC4)c(F)c3)n2)cc1 [Example A036, 1-((5-fluoro-6-(piperazin-1-yl)pyridin-3-yl)methyl)-3-(4-(2-(4-methoxyphenyl)propan-2-yl)thiazol-2-yl)urea]",24 nM,620 nM,,
